Columns and labels:
RXRΓ = molecular target: T1, RXRΓ (Homo sapiens, UniProt P48443); experiment: Ligand binding assay, RXRΓ
T1 construct: made in house; host or cells: Baculovirus expression (insect cell extract)
T1 sequence (P48443 1-463): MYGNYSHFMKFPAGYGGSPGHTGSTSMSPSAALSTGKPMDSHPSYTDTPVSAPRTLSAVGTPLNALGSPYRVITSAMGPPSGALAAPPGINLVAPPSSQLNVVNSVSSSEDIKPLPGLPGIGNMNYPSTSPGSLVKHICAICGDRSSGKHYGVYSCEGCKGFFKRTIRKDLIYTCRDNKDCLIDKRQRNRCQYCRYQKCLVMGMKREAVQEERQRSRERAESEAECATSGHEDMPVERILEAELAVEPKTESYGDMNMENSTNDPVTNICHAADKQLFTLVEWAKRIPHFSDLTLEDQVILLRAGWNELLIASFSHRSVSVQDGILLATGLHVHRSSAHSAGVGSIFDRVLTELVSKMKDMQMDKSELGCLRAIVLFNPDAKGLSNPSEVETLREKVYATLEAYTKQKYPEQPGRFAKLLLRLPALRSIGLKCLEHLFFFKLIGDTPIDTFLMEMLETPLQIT
Experimental: (§1) All binding assays were performed in a similar fashion. All six receptor types were derived from the expressed receptor type (RARα, β, Γ and RXRα, β, Γ) expressed in Baculovirus. Stock solutions of all compounds were prepared as 10 mM ethanol solutions and serial dilutions carried out into 1:1 DMSO; ethanol. Assay buffers consisted of the following for all six receptor assays: 8% glycerol, 120 mM KCl 8 mM Tris, 5 mM CHAPS 4 mM DTT and 0.24 mM PMSF, pH-7.4@ room temperature.
(§2) All receptor binding assays were performed in the same manner. The final assay volume was 250 μl and contained from 10-40 μg of extract protein depending on receptor being assayed along with 5 nM of [^3H] all-trans retinoic acid or 10 nM [^3H] 9-cis retinoic acid and varying concentrations of competing ligand at concentrations that ranged from 0-10^−5 M. The assays were formatted for a 96 well minitube system. Incubations were carried out at 4° C. until equilibrium was achieved. Non-specific binding was defined as that binding remaining in the presence of 1000 nM of the appropriate unlabeled retinoic acid isomer. At the end of the incubation period, 50 μl of 6.25% hydroxyapitite was added in the appropriate wash buffer. The wash buffer consisted of 100 mM KCl, 10 mM Tris and either 5 mM CHAPS (RXRα, β, Γ) or 0.5% Triton X-100 (RARα, β, Γ). The mixture was vortexed and incubated for 10 minutes at 4° C., centrifuged and the supernatant removed. The hydroxyapitite was washed three more times with the appropriate wash buffer. The receptor-ligand complex was adsorbed by the hydroxyapitite. The amount of receptor-ligand complex was determined by liquid scintillation counting of hydroxyapitite pellet.
(§3) After correcting for non-specific binding, IC50 values were determined. […] The IC50 value was determined graphically from a loglogit plot of the data. The […] were determined by application of the Cheng-Prussof equation to the IC50 values, the labeled ligand concentration and the Kd of the labeled ligand.
(§4) The results of ligand binding assay are expressed in Kd numbers. (See Cheng et al. Biochemical Pharmacology Vol. 22 pp 3099-3108, expressly incorporated herein by reference.)

RXRβ = molecular target: T2, RXRβ (Homo sapiens, UniProt P28702); experiment: Ligand binding assay, RXRβ
T2 construct: made in house; host or cells: Baculovirus expression (insect cell extract)
T2 sequence (P28702 1-533): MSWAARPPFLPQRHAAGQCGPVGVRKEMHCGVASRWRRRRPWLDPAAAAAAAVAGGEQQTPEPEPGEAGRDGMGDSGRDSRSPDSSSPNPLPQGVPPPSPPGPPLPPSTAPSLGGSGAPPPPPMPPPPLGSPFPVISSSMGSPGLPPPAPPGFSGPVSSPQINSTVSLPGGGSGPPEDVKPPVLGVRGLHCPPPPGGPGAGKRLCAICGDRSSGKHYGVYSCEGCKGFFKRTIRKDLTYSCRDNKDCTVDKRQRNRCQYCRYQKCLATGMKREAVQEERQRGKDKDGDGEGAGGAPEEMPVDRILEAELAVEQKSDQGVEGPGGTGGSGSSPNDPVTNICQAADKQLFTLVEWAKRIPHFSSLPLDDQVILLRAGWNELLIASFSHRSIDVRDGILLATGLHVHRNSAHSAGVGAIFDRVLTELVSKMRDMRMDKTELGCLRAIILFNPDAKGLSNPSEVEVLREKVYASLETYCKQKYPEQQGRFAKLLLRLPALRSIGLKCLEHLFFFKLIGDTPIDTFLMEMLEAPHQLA
Experimental: as §1, §2, §3, §4

RXRα = molecular target: T3, RXRα (Homo sapiens, UniProt P19793); experiment: Ligand binding assay, RXRα
T3 construct: made in house; host or cells: Baculovirus expression (insect cell extract)
T3 sequence (P19793 1-462): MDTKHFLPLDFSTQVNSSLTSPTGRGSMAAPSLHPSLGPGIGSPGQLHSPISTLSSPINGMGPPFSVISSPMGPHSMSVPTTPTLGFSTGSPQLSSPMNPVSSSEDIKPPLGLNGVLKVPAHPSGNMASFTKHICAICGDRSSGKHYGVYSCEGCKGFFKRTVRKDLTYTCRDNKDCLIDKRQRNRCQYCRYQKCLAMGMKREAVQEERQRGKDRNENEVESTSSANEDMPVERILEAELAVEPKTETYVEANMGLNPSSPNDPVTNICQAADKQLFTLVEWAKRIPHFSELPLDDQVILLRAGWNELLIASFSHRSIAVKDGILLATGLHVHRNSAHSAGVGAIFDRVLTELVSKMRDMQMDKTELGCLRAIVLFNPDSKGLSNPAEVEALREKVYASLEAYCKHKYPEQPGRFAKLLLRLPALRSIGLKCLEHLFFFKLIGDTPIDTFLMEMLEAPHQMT
Experimental: as §1, §2, §3, §4

RARα = molecular target: T4, RARα (Homo sapiens, UniProt P10276); experiment: Ligand binding assay, RARα
T4 construct: made in house; host or cells: Baculovirus expression (insect cell extract)
T4 sequence (P10276 1-462): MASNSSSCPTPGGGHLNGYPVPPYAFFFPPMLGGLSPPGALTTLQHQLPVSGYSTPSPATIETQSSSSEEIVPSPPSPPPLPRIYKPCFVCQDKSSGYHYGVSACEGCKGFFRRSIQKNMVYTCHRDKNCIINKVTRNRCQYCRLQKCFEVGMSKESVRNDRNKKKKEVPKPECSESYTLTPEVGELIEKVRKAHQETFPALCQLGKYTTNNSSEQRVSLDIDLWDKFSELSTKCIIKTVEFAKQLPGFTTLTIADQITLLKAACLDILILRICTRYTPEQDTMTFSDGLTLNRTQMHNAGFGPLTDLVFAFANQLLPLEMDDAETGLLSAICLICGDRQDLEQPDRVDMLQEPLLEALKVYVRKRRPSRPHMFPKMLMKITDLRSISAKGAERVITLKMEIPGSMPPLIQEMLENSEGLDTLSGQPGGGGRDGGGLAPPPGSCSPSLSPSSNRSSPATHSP
Experimental: as §1, §2, §3
The results of ligand binding assay are expressed in Kd numbers. […]

[1] = system: AML-193 cells (acute monocytic leukemia); experiment: AML 193 cell culture assay (3H-thymidine incorporation); format: cell-based, human; conditions: FIG. 2; low concentrations
Experimental: All trans-retinoic acid (t-RA) (Sigma Chemicals Co., St. Louis, Mo.) was stored at −70° C. Prior to each experiment the compound was dissolved in 100% ethanol at 1 mM and diluted in culture medium immediately before use. All experiments were performed in subdued light. Controls were assayed using the same concentration of ethanol as present in the experimental plates and this concentration of diluent had no effect in either assay.
AML-193 was established from the blast cells classified as M5 Acute Monocyte Leukemia. The growth factor, […] (GM-CSF) was required to establish this cell line and growth factors are necessary for its continuous proliferation in chemically defined medium. AML-193 cells were grown and maintained in Iscove's modified Dulbecco's medium supplemented with 10% fetal bovine serum, glutamine and antibiotics with 5 μg/ml insulin (Sigma Chemical Co.) and 2 ng/ml rh GM-CSF (R and D Systems). The cells were diluted to a concentration of 3×10^5/ml twice a week.
AML-193 cells were plated in a 96 well round bottom microtiter plate (Costar) at a density of 1,000 cells/well. To appropriate wells, retinoid test compounds were added at the final concentrations indicated for a final volume of 150 μl/well. The plates were incubated for 96 hours at 37° C. in a humidified atmosphere of 5% CO2 in air. Subsequently, 1 μCi of [5′-^3H]-thymidine (Amersham, U.K., 43 Ci/mmol specific activity) in 25 μl culture medium was added to each well and the cells were incubated for an additional 6 hours.
The cell lines were then processed as follows: the cellular DNA was precipitated with 10% trichloroacetic acid onto glass fiber filter mats using a SKATRON multi-well cell harvester (Skatron Instruments, Sterling Va.). Radioactivity incorporated into DNA, as a direct measurement of cell growth, was measured by liquid scintillation counting. The numbers represent the mean disintegrations per minute of incorporated thymidine from triplicate wells±SEM.

RARβ = molecular target: T5, RARβ (Homo sapiens, UniProt P10826); experiment: Ligand binding assay, RARβ
T5 construct: made in house; host or cells: Baculovirus expression (insect cell extract)
T5 sequence (P10826 1-455): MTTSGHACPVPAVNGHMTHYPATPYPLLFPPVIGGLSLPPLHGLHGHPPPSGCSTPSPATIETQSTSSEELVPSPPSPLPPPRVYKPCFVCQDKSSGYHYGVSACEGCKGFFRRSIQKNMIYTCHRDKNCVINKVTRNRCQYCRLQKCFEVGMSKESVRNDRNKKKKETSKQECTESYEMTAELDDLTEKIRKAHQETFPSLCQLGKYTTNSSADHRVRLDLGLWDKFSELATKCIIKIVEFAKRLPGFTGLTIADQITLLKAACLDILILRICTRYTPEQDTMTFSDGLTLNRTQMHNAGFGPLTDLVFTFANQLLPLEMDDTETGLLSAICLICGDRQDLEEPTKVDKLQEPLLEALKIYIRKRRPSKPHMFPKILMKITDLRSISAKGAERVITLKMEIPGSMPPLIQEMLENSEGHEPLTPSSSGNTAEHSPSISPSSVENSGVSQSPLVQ
Experimental: as §1, §2, §3, §4

RARΓ = molecular target: T6, RARΓ (Homo sapiens, UniProt P13631); experiment: Ligand binding assay, RARΓ
T6 construct: made in house; host or cells: Baculovirus expression (insect cell extract)
T6 sequence (P13631 1-454): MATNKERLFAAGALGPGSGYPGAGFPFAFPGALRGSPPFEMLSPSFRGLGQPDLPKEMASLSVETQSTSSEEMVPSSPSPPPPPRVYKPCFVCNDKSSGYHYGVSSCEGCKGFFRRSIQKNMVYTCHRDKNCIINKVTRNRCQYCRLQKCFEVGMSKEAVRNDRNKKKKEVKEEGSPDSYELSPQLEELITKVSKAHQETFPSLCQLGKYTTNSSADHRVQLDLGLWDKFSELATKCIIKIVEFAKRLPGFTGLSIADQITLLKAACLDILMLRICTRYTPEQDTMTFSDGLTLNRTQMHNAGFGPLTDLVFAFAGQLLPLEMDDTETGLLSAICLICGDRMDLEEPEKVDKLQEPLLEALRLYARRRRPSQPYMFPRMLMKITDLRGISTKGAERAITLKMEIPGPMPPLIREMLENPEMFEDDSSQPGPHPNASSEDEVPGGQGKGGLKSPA
Experimental: as §1, §2, §3, §4

Row | Compound | Kd (RXRΓ) [nM] | Kd (RXRβ) [nM] | Kd (RXRα) [nM] | Kd (RARα) [nM] | growth of AML 193 cells at low concentrations [1] | Kd (RARβ) [nM] | Kd (RARΓ) [nM]
1 | 2-Fluoro-4-[(3′,5′-di-t-butyl)phenylcarbamoyl]benzoic acid [Compound 46] | > 1000 | > 1000 | > 1000 | – | – | – | –
2 | CC1(C)CC=C(C#N)c2cc(C#Cc3ccc(C(=O)O)cc3)ccc21 [AGN 193090, 4-[(8-cyano-5,6-dihydro-5,5-dimethylnaphth-2-yl)ethynyl]benzoic acid, reference compound] | – | – | – | 109 | do not inhibit but rather at these low concentrations even stimulate such cell growth | 34 | 77
3 | CC(C)(C)C=C1CCC(C)(C)c2ccc(C#Cc3ccc(C(=O)O)cc3)cc21 [AGN 193459, 4-[(5,6-dihydro-5,5-dimethylnaphth-7(6H)-8-(1-2,2-dimethylpropylidene)naphth-2-yl)ethynyl]benzoic acid, reference compound] | – | – | – | 6 | do not inhibit but rather at these low concentrations even stimulate such cell growth | 2 | 7
4 | CC1(C)CCC(C)(C)c2c1cc(C(=O)Nc1ccc(C(=O)O)c(F)c1)c(O)c2Br [Compound 30] | – | – | – | < 3 | – | – | –
5 | CC(C)(C)c1cc(C(=O)Nc2cc(F)c(C(=O)O)c(F)c2)cc(C(C)(C)C)n1 [Compound 50] | > 1000 | > 1000 | > 1000 | – | – | > 1000 | > 1000
6 | CC(C)(C)c1cc(C(=O)Nc2cc(F)c(C(=O)O)c(F)c2)cc(C(C)(C)C)c1 [Compound 52] | > 1000 | > 1000 | > 1000 | – | – | > 1000 | > 1000
7 | CC(C)(C)c1cc(C(=O)Nc2ccc(C(=O)O)c([N+](=O)[O-])c2)cc(C(C)(C)C)n1 [Compound 54] | > 1000 | > 1000 | > 1000 | – | – | > 1000 | > 1000
